{"source": "paper PMC12190736", "about": "“Development and In Vitro Characterization of [^3H]GMC-058 as Radioligand for Imaging Parkinsonian-Related Proteinopathies” (Cells, 2025)", "key": {"[1]": {"test_system": "tissue microarrays (TMAs) from cases with different proteinopathies", "experiment": "Autoradiography and emulsion autoradiography on tissue microarrays", "type": "binding, human", "procedure": "Tissue micro-arrays (TMAs), prepared from paraffin-embedded tissue from human post-mortem tissue as described in [14], were first de-paraffinized with two 1 h and one overnight incubation in Neo-Clear Xylene Substitute (Sigma-Aldrich, St. Louis, MO, USA) at 37 °C and then […] in three short incubations at RT with decreasing concentrations of ethanol before autoradiography with [^3H]GMC-058 was performed as described above. For the saturation binding autoradiography, duplicate slides of each TMA set were incubated with 0.3 nM to 200 nM [^3H]GMC-058. Adjacent sections were co-incubated with 5 μM of unlabeled GMC-044 to calculate NSB. The quantification of total and non-specific binding was performed via delineation of the ROIs on the whole core, except for MSA, where the ROI followed the areas in which the binding of [^3H]GMC-058 corresponded to areas with α-syn inclusions. Those cores that had imperfections or were incomplete were not included in the analysis, or only the area of remaining tissue that adhered to the glass slide was delineated. For the cores from the substantia nigra of PD patient cases, the cores selected for analysis were those containing α-syn inclusion, but no A-β deposits of pTau tangles. The information was collected from IHC analysis of adjacent TMA slides.\nFor high-resolution emulsion autoradiography, an autoradiography experiment with TMAs using 25 nM [^3H]GMC-058 was performed as described above. At the end of the 90 h exposure to the storage phosphor screen, slides were stored in a vacuum until dipping in a photoemulsion. In the dark, using a sodium lamp, Agar Scientific, AGP9284 type NTB emulsion was melted in a heated water bath and diluted (1:1) with ddH2O. The emulsion was poured into dipping chambers, and the slides were dipped and placed vertically to air-dry. When completely dry, the slides were placed in a light-tight slide box with desiccant and exposed at 4 C for 1–12 weeks. After exposure, the slides were developed in diluted Phenisol Developer for 2 min, rinsed in water, and fixed in hypam Fixer at 17 °C in a water bath. After rinsing in water, the slides were counterstained with Harris HTX, dehydrated in graded ethanol, cleared in Xylene, and mounted in Pertex. Images were taken using a 3D Histech P250 III scanner (3DHISTECH Kft. Hungary) at up to 15 focal layers with a distance of 0.2 μm."}, "[2]": {"target": "AD, PSP, CBD, MSA-P, PD and control brain homogenates", "experiment": "Saturation binding assays with [^3H]GMC-058 in brain homogenates", "experimental": "For AD, CBD, PSP, and CT cases, the frozen tissue blocks were prepared as described by Stehouwer et al. [13]. In brief, tissue blocks were thawed and homogenized in ice-cold pH 7.0 phosphate-buffered saline (PBS) at 300 mg/mL on ice using a glass homogenizer, diluted 30-fold with PBS to 10 mg/mL, and homogenized a second time with a Brinkmann Polytron homogenizer before storage at −80 °C.\nAfter incubation, samples were filtered under vacuum on equilibrated GF/B UniFilter plates (PerkinElmer) using the FilterMate 196 (PerkinElmer). Afterwards, filters were washed three times with 250 μL chilled buffer (PBS + 20% EtOH). [^3H]GMC-058 binding was measured with a beta scintillation counter (PerkinElmer). The saturation data was fitted and analyzed using the non-linear regression function of GraphPad Prism 10 software to calculate the dissociation constant (KD) and maximum number of binding sites (Bmax). Scatchard plots were prepared with GraphPad Prism 10 software to display the saturation binding data."}}, "note": "Marks after values point to notes of the source that are not given here."}
{"smiles": "[3H]c1cc(N2CCN(c3ccc(NC(=O)C(C)(C)C)cc3)CC2)ccc1OC", "note": "[[^3H]GMC-058, N-(4-(4-(4-methoxy-[3-3H]phenyl)piperazin-1-yl)phenyl)pivalamide]", "values": [{"measurement": "Saturation binding autoradiography", "setting": "[1]; 0.3 nM to 200 nM, TMAs", "result": "specific binding did not reach saturation in any of the tissues"}, {"measurement": "Specific binding versus displaceable binding in controls", "setting": "[1]; 25 nM, PD, MSA, CAA, AD, PSP and CBD, p < 0.01", "result": "significantly higher than the displaceable binding in controls"}, {"measurement": "Co-localization of binding (high-resolution autoradiography)", "setting": "[1]; 25 nM, TMAs", "result": "co-localized with α-syn inclusions in PD and MSA, with dense Aβ plaques in CAA and AD, and with p-tau inclusions in PSP and CBD"}, {"measurement": "Specific binding, mean", "setting": "[1]; 25 nM, TMAs, AD", "result": "127 ** fmol/mg tissue equivalent"}, {"measurement": "Specific binding, mean", "setting": "[1]; 25 nM, TMAs, CAA", "result": "131 ** fmol/mg tissue equivalent"}, {"measurement": "Specific binding, mean", "setting": "[1]; 25 nM, TMAs, CBD", "result": "204 *** fmol/mg tissue equivalent"}, {"measurement": "Specific binding, mean", "setting": "[1]; 25 nM, TMAs, MSA", "result": "166 ** fmol/mg tissue equivalent"}, {"measurement": "Displaceable (off-target) binding, mean", "setting": "[1]; 25 nM, TMAs, NDE (non-dementia elderly controls)", "result": 70, "unit": "fmol/mg tissue equivalent"}, {"measurement": "Specific binding, mean", "setting": "[1]; 25 nM, TMAs, PD", "result": "129 *** fmol/mg tissue equivalent"}, {"measurement": "Specific binding, mean", "setting": "[1]; 25 nM, TMAs, PSP", "result": "173 *** fmol/mg tissue equivalent"}, {"measurement": "Displaceable (off-target) binding, mean", "setting": "[1]; 25 nM, TMAs, liver control", "result": 57, "unit": "fmol/mg tissue equivalent"}, {"measurement": "Kd", "setting": "[2]; AD brain homogenates", "result": 0.0054, "unit": "µM"}, {"measurement": "Kd", "setting": "[2]; CBD brain homogenates", "result": "> 0.05", "unit": "µM"}, {"measurement": "Saturation binding", "setting": "[2]; PD tissue", "result": "No evidence of saturation binding"}, {"measurement": "Kd", "setting": "[2]; PSP brain homogenates", "result": "> 0.05", "unit": "µM"}, {"measurement": "Kd", "setting": "[2]; control brain homogenates", "result": "> 0.1", "unit": "µM"}]}
